According to patent publication US20200017496A1 (priority 2017, published 2020):
Read-outs that look alike come from different tables or passages of the source.

Tested on: Escherichia coli (ECO) isolates
Test: MIC of compounds alone and combined with antibacterials, broth microdilution (CLSI)
Type: cell-based
Conditions: for MIC ATB in combination: AF1 @ 4 μg/mL; for MIC: Escherichia coli
Summary of the method: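 Log-phase isolates at final 5·10^5 CFU/mL in cation-adjusted Mueller-Hinton broth, incubated 16-20 h at 35° C in ambient air. MIC read visually as lowest concentration preventing growth, for compound alone and for antibacterial at each compound concentration.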

CO/N=C(\C(=O)N[C@@H]1C(=O)N2C(C(=O)O)=C(COC(N)=O)CS[C@H]12)c1ccco1 [FUR, Cefuroxime]
MIC ATB in combination (ECO 4133): 4 µg/mL | MIC ATB in combination (ECO 5302): 4 µg/mL | MIC ATB in combination (ECO 131119): 4 µg/mL | MIC ATB in combination (ECO 180070): 4 µg/mL | MIC ATB in combination (ECO 190314): 4 µg/mL | MIC ATB in combination (ECO 190317): 4 µg/mL | MIC ATB in combination (ECO 190457): 8 µg/mL | MIC ATB in combination (ECO 190549): 2 µg/mL | MIC ATB in combination (ECO 200159): 2 µg/mL | MIC ATB in combination (ECO 200259): 2 µg/mL | MIC ATB in combination (ECO 200344): 4 µg/mL | MIC ATB in combination (ECO 260096): 4 µg/mL | MIC ATB in combination (ECO 260304): 4 µg/mL | MIC ATB in combination (ECO 260508): 2 µg/mL | MIC ATB in combination (ECO RGN238): 8 µg/mL | MIC ATB in combination (ECO UFR15): 2 µg/mL | MIC ATB in combination (ECO UFR16): 16 µg/mL | MIC ATB in combination (ECO UFR18): 32 µg/mL | MIC ATB in combination (ECO UFR19): 16 µg/mL | MIC ATB in combination (ECO UFR20): 64 µg/mL | MIC ATB in combination (ECO UFR61O): 8 µg/mL | MIC ATB in combination (ECO UFR62): 8 µg/mL | MIC ATB in combination (ECO UFR74): 16 µg/mL | MIC ATB in combination (ECO UFR86): 32 µg/mL | MIC ATB in combination (ECO UFR174): 2 µg/mL | MIC ATB in combination (ECO UFR175): 8 µg/mL | MIC ATB in combination (ECO UFR176): 4 µg/mL | MIC ATB in combination (ECO UFR184): 64 µg/mL | MIC ATB in combination (ECO UFR186): 16 µg/mL | MIC ATB in combination (ECO UFR187): 8 µg/mL | MIC ATB in combination (ECO UFR189): 2 µg/mL | MIC ATB in combination (ECO UFR190): 8 µg/mL | MIC ATB in combination (ECO UFR191): 8 µg/mL | MIC ATB in combination (ECO UFR207): 2 µg/mL | MIC ATB in combination (ECO UFR209): 4 µg/mL | MIC ATB in combination (ECO UFR210): 2 µg/mL | MIC ATB in combination (ECO UFR211): 8 µg/mL | MIC ATB in combination (ECO UFR218): 4 µg/mL | MIC: > 256 µg/mL | MIC (strain ECO 4133 (TEM-30, OXA-1), ATB alone): 16 µg/mL | MIC (strain ECO 5302 (TEM-1, OXA-1), ATB alone): 32 µg/mL | MIC (strain ECO 131119 (TEM-1, OXA-48), ATB alone): 8 µg/mL | MIC (strain ECO 180070 (TEM-1, CTX-M-15), ATB alone, read-out: MIC): > 256 µg/mL | MIC (strain ECO 190314 (CTX-M-1), ATB alone, read-out: MIC): > 256 µg/mL | MIC (strain ECO 190317 (TEM-1, SHV-12, CTX-M-15, OXA-1), ATB alone): > 512 µg/mL | MIC (strain ECO 190457 (CTX-M-15, OXA-1), ATB alone, read-out: MIC): > 256 µg/mL | MIC (strain ECO 190549 (CTX-M-1), ATB alone, read-out: MIC): > 256 µg/mL | MIC (strain ECO 200159 (TEM-1, CTX-M-14), ATB alone, read-out: MIC): > 256 µg/mL | MIC (strain ECO 200259 (CTX-M-14), ATB alone, read-out: MIC): > 256 µg/mL | MIC (strain ECO 200344 (CTX-M-1), ATB alone, read-out: MIC): > 256 µg/mL | MIC (strain ECO 260096 (CTX-M-132), ATB alone, read-out: MIC): > 256 µg/mL | MIC (strain ECO 260304 (CTX-M-15), ATB alone, read-out: MIC): > 256 µg/mL | MIC (strain ECO 260508 (TEM-1, CTX-M-15, OXA-1), ATB alone, read-out: MIC): > 256 µg/mL | MIC (strain ECO RGN238 (OXA-1), ATB alone): 16 µg/mL | MIC (strain ECO UFR15 (TEM-1, OXA-48), ATB alone): 16 µg/mL | MIC (strain ECO UFR16 (TEM-1, CTX-M-15, OXA-1, OXA-48), ATB alone, read-out: MIC): > 256 µg/mL | MIC (strain ECO UFR17 (TEM-1, CTX-M-15, CMY-2, OXA-1, OXA-181), ATB alone, read-out: MIC): > 256 µg/mL | MIC (strain ECO UFR18 (CTX-M-15, OXA-204), ATB alone, read-out: MIC): > 256 µg/mL | MIC (strain ECO UFR19 (CTX-M-15, CMY-2, OXA-1, OXA-204), ATB alone, read-out: MIC): > 256 µg/mL | MIC (strain ECO UFR20 (SHV-1, CTX-M-15, OXA-1, OXA-232), ATB alone, read-out: MIC): > 256 µg/mL | MIC (strain ECO UFR74 (SHV-1, DHA-1), ATB alone, read-out: MIC): > 256 µg/mL | MIC (strain ECO UFR86 (ompC-, ompF-), ATB alone, read-out: MIC): 64 µg/mL | MIC (strain ECO UFR184 (CTX-M-15, CMY-4, OXA-1, OXA-204), ATB alone, read-out: MIC): > 256 µg/mL | MIC (strain ECO UFR185 (OXA-48), ATB alone, read-out: MIC): > 256 µg/mL | MIC (strain ECO UFR186 (TEM-1, CTX-M-14, OXA-48), ATB alone, read-out: MIC): > 256 µg/mL | MIC (strain ECO UFR187 (CTX-M-15, OXA-48), ATB alone, read-out: MIC): > 256 µg/mL | MIC (strain ECO UFR189 (TEM-1, CTX-M-15, OXA-48), ATB alone, read-out: MIC): > 256 µg/mL | MIC (strain ECO UFR190 (CTX-M-24, OXA-48), ATB alone, read-out: MIC): > 256 µg/mL | MIC (strain ECO UFR191 (TEM-1, CTX-M-24, OXA-48), ATB alone, read-out: MIC): > 256 µg/mL | MIC (strain ECO UFR207 (CTX-M-15), ATB alone, read-out: MIC): > 256 µg/mL | MIC (strain ECO UFR208 (SHV-12), ATB alone, read-out: MIC): > 256 µg/mL | MIC (strain ECO UFR209 (TEM-1, CTX-M-15), ATB alone, read-out: MIC): > 256 µg/mL | MIC (strain ECO UFR210 (SHV-12), ATB alone, read-out: MIC): > 256 µg/mL | MIC (strain ECO UFR212 (CMY-2), ATB alone, read-out: MIC): > 256 µg/mL | MIC (strain ECO UFR218 (TEM-1, SHV-1, CTX-M-15), ATB alone, read-out: MIC): > 256 µg/mL

C=CC1=C(C(=O)O)N2C(=O)[C@@H](NC(=O)/C(=N\O)c3csc(N)n3)[C@H]2SC1 [CDR, Cefdinir]
MIC ATB in combination (ECO 4133): <=0.25 μg/mL | MIC ATB in combination (ECO 5302): <=0.25 μg/mL | MIC ATB in combination (ECO 131119): <=0.25 μg/mL | MIC ATB in combination (ECO 180070): <=0.25 μg/mL | MIC ATB in combination (ECO 190314): <=0.25 μg/mL | MIC ATB in combination (ECO 190317): <=0.25 μg/mL | MIC ATB in combination (ECO 190457): <=0.25 μg/mL | MIC ATB in combination (ECO 190549): <=0.25 μg/mL | MIC ATB in combination (ECO 200159): <=0.25 μg/mL | MIC ATB in combination (ECO 200259): <=0.25 μg/mL | MIC ATB in combination (ECO 200344): <=0.25 μg/mL | MIC ATB in combination (ECO 260096): <=0.25 μg/mL | MIC ATB in combination (ECO 260304): <=0.25 μg/mL | MIC ATB in combination (ECO 260508): <=0.25 μg/mL | MIC ATB in combination (ECO RGN238): <=0.25 μg/mL | MIC ATB in combination (ECO UFR15): <=0.25 μg/mL | MIC ATB in combination (ECO UFR16): 1 µg/mL | MIC ATB in combination (ECO UFR18): 4 µg/mL | MIC ATB in combination (ECO UFR19): 2 µg/mL | MIC ATB in combination (ECO UFR20): 16 µg/mL | MIC ATB in combination (ECO UFR61O): 0.25 µg/mL | MIC ATB in combination (ECO UFR62): 0.5 µg/mL | MIC ATB in combination (ECO UFR74): 1 µg/mL | MIC ATB in combination (ECO UFR86): 1 µg/mL | MIC ATB in combination (ECO UFR174): <=0.25 μg/mL | MIC ATB in combination (ECO UFR175): 0.5 µg/mL | MIC ATB in combination (ECO UFR176): <=0.25 μg/mL | MIC ATB in combination (ECO UFR184): 16 µg/mL | MIC ATB in combination (ECO UFR186): 1 µg/mL | MIC ATB in combination (ECO UFR187): 0.5 µg/mL | MIC ATB in combination (ECO UFR189): <=0.25 μg/mL | MIC ATB in combination (ECO UFR190): 0.5 µg/mL | MIC ATB in combination (ECO UFR191): 1 µg/mL | MIC ATB in combination (ECO UFR207): <=0.25 μg/mL | MIC ATB in combination (ECO UFR209): <=0.25 μg/mL | MIC ATB in combination (ECO UFR210): <=0.25 μg/mL | MIC ATB in combination (ECO UFR211): <=0.25 μg/mL | MIC ATB in combination (ECO UFR212): 32 µg/mL | MIC ATB in combination (ECO UFR218): <=0.25 μg/mL
